Data: patent US10947296B2, “Fusion protein Slit2D2(C386S)-HSA and use thereof in treatment of fibrotic diseases” (SUZHOU THINKING POWER BIOTECHNOLOGY CO., LTD., priority 2016, dated 2021)

B1: Slit2N: Protein having a molecular weight of about 120 kDa at the N-terminus of the Slit2 protein (protein)
chain: QCSCSGSTVDCHGLALRSVPRNIPRNTERLDLNGNNITRITKTDFAGLRHLRVLQLMENKISTIERGAFQDLKELERLRLNRNHLQLFPELLFLGTAKLYRLDLSENQIQAIPRKAFRGAVDIKNLQLDYNQISCIEDGAFRALRDLEVLTLNNNNITRLSVASFNHMPKLRTFRLHSNNLYCDCHLAWLSDWLRQRPRVGLYTQCMGPSHLRGHNVAEVQKREFVCSGHQSFMAPSCSVLHCPAACTCSNNIVDCRGKGLTEIPTNLPETITEIRLEQNTIKVIPPGAFSPYKKLRRIDLSNNQISELAPDAFQGLRSLNSLVLYGNKITELPKSLFEGLFSLQLLLLNANKINCLRVDAFQDLHNLNLLSLYDNKLQTIAKGTFSPLRAIQTMHLAQNPFICDCHLKWLADYLHTNPIETSGARCTSPRRLANKRIGQIKSKKFRCSAKEQYFIPGTEDYRSKLSGDCFADLACPEKCRCEGTTVDCSNQKLNKIPEHIPQYTAELRLNNNEFTVLEATGIFKKLPQLRKINFSNNKITDIEEGAFEGASGVNEILLTSNRLENVQHKMFKGLESLKTLMLRSNRITCVGNDSFIGLSSVRLLSLYDNQITTVAPGAFDTLHSLSTLNLLANPFNCNCYLAWLGEWLRKKRIVTGNPRCQKPYFLKEIPIQDVAIQDFTCDDGNDDNSCSPLSRCPTECTCLDTVVRCSNKGLKVLPKGIPRDVTELYLDGNQFTLVPKELSNYKHLTLIDLSNNRISTLSNQSFSNMTQLLTLILSYNRLRCIPPRTFDGLKSLRLLSLHGNDISVVPEGAFNDLSALSHLAIGANPLYCDCNMQWLSDWVKSEYKEPGIARCAGPGEMADKLLLTTPSKKFTCQGPVDVNILAKCNPCLSNPCKNDGTCNSDPVDFYRCTCPYGFKGQDCDVPIHACISNPCKHGGTCHLKEGEEDGFWCICADGFEGENCEVNVDDCEDNDCENNSTCVDGINNYTCLCPPEYTGELCEEKLDFCAQDLNPCQHDSKCILTPKGFKCDCTPGYVGEHCDIDFDDCQDNKCKNGAHCTDAVNGYTCICPEGYSGLFCEFSPPMVLPR

What was measured:
[1] = test system: pulmonary fibrosis model; assay: Efficacy on bleomycin-induced pulmonary fibrosis model; assay type: in vivo; parameters: body weight of the animals (Mean ± SEM) / Weight of the left lung (Mean ± SEM) / Volume of the left lung (Mean ± SEM): unit not given here; settings: for body weight of the animals (Mean ± SEM): PFD 50mpk BID PO
Experimental: Animals were anesthetized by inhaling isoflurane. After confirmation of anesthesia, the animals were sterilized, then the neck skin was cut, the muscles were bluntly separated to expose the trachea, and bleomycin (dosage: 3 mg/kg, volume: 1.0 mL/kg) was directly injected between the tracheal rings. After the operation, the animals were placed in a 37° C. electric blanket to keep warm until the animals were completely awakened. After confirming that they were able to eat and drink freely, the animals were returned to the cage for normal feeding.
In this experiment, there were four groups, i.e., model group (experimental group-1, […]), PFD group (experimental group-2, n=6), Slit2D2(C386S)-HSA-1 mg/kg (experimental group-3, n=6), and Slit2D2(C386S)-HSA-5 mg/kg (experimental group-4, n=6).
In this experiment, the positive control drug (PFD) was given to rats by gavage twice a day, which was started on the day of modeling, and administered continuously for 14 days. The test compound (Slit2D2(C386S)-HSA) was given intravenously once every other day, which was started on the day of modeling, and a total of seven doses were administered (as shown in table 6).
Physiological observation of the experimental animals: changes in body weight of the animals were measured (body weight was measured once a day before administration); and the death rate of animals during the test period was monitored.
Animals were euthanized 24 hours after the last administration on the 14th day of modeling. After confirming the death of the animals, the left lung was fixed by intrapulmonary infusion of formalin, and the volume and weight of the left lung after perfusion were measured for relevant examination of the pulmonary pathology.
General pathological examination: After the perfusion with an equal amount of formalin in the left lung, the wet weight of left lung after perfusion was weighed/recorded with a micro-balance; and the volume of left lung after perfusion was measured and recorded using a micro-measuring cup.
Pathological examination of lung tissue: The whole lung was dehydrated. Lung paraffin sections were made with paraffin blocks. […] HE staining and Masson Trichrome staining were performed according to pathological staining SOP, and whole section scanning was performed using a Digital Pathscope slice scanner. Pathological analysis and scoring of changes in damage and inflammation of terminal bronchioles and accompanying small pulmonary artery at the periphery of the lesions (as shown in Tables 7 and 8 and FIG. 7) were performed using the HE-stained sections. Lesion area calculation, lesion pathology analysis and scoring were performed with the Masson Trichrome-stained sections (as shown in Table 9 and FIG. 8).
The mean±sd or mean±sem was calculated using the graphpad prism software, and the significant difference test was performed using t-test, one-way ANOVA and two-way ANOVA test. A significant difference between the two groups was considered at p<0.05.

[2] = target: T1, Robo1 protein (Homo sapiens, UniProt Q9Y6N7); assay: Affinity of the fusion protein to receptor Robo1 determined by SPR; assay type: binding; settings: Robo1 bound to CM5 chip
T1 construct: purchased ORIGEN TP327713
Experimental: The affinity constant between the protein and Robo1 protein was detected by SPR (Surface Plasmon resonance BIAcore 200) method. The Robo1 protein (ORIGEN, Art. No.: TP327713) was bound to a CM5 chip, and the interaction between the fusion protein Slit2D2(C386S)-HSA (prepared in Example 1), Slit2D2-HSA (as disclosed in Patent Application PCT/CN2015/092079), and the receptor protein Robo1 were analyzed. Kinetic measurements were performed according to the method referred by Canziani et al. (2004, Anal. Biochem. 325: 301-307). Furthermore, the affinity of the Slit2N protein (Slit2N is a protein having a molecular weight of about 120 kDa at the N-terminus of the Slit2 protein) to Robo1 protein was also determined by the same method.

T1 sequence (Q9Y6N7 26-1651): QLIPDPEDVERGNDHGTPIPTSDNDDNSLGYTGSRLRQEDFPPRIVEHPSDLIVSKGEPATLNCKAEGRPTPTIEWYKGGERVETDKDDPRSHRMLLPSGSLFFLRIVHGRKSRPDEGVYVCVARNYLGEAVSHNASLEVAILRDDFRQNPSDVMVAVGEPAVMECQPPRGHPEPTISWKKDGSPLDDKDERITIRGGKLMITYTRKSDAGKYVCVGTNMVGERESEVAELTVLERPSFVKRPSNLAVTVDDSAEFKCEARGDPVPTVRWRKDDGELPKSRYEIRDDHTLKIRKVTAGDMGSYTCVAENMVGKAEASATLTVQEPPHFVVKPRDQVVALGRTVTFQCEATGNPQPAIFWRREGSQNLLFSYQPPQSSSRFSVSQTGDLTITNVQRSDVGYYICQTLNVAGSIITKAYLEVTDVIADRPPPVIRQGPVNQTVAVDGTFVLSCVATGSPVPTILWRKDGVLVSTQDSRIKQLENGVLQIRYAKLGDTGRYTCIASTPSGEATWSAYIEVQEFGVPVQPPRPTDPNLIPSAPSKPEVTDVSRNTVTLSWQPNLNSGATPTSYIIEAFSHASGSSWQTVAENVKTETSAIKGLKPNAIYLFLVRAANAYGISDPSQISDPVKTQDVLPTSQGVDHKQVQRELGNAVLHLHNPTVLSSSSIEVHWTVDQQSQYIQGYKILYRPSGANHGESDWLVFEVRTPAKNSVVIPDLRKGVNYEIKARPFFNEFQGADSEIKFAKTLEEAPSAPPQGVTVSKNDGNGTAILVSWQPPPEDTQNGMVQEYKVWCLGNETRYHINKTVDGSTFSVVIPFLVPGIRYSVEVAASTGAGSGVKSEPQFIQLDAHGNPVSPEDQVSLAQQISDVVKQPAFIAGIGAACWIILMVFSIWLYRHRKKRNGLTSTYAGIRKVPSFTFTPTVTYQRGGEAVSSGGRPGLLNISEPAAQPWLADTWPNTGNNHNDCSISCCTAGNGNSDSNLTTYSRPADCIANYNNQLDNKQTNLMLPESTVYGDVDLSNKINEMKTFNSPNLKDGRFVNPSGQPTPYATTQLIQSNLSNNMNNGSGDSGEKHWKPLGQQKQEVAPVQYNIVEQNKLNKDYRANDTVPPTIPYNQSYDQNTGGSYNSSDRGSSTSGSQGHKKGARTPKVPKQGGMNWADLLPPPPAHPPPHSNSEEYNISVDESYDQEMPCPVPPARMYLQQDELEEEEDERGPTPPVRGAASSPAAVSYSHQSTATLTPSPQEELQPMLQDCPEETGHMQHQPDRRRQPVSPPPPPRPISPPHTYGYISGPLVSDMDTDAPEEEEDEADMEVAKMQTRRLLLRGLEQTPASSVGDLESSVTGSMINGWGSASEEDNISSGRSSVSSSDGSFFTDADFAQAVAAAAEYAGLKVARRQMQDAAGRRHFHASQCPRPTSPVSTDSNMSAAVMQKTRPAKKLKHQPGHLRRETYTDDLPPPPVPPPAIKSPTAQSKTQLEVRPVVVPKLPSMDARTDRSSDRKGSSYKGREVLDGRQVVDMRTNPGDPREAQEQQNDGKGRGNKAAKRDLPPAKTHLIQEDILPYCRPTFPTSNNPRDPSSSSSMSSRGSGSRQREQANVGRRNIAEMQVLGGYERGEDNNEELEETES

Row | Ka [2] | Molecule | body weight of the animals (Mean ± SEM) ([1]; Day 1) | body weight of the animals (Mean ± SEM) ([1]; Day 3) | body weight of the animals (Mean ± SEM) ([1]; Day 5) | body weight of the animals (Mean ± SEM) ([1]; Day 7) | body weight of the animals (Mean ± SEM) ([1]; Day 9) | body weight of the animals (Mean ± SEM) ([1]; Day 11) | body weight of the animals (Mean ± SEM) ([1]; Day 13) | inhibition on the progression of pulmonary fibrosis ([1]; continuous administration for 14 days, 50 mg/kg PO BID)
1 | – | Cc1ccc(=O)n(-c2ccccc2)c1 [PFD, Pirfenidone, reference compound] | 279.4 ± 2.3 | 261.8 ± 3.9 | 265.0 ± 6.4 | 282.9 ± 7.4 | 298.4 ± 8.0 | 312.6 ± 8.8 | 321.7 ± 8.3 | significant inhibition
2 | 743600 M⁻¹ s⁻¹ | B1 | – | – | – | – | – | – | – | –
